In data set [1] the test system is ACE. The following applies: cited from earlier work. The source says:
ACE inhibitors (ACEIs) inhibit ACE activity and reduce blood pressure by inhibiting the synthesis of angiotensin II or promoting the release of bradykinin. Although ACEIs, such as enalapril, captopril, and lisinopril, are widely used in hypertension treatments, synthetic ACEIs have a series of negative effects, including hypotension, cough, increased potassium levels and, angioedema. Consequently, the development of safe and effective antihypertensive drugs is important, and due to antihypertensive effects and safety, there has been an increasing interest in food-derived ACE inhibito ...

Data set [2] deals with T1, ACE (from rabbit lung) (Oryctolagus cuniculus, UniProt P12822).
T1 construct: ACE (from rabbit lung); purchased Sigma Chemical Co. (St. Louis, MO, USA); host or cells: rabbit lung tissue
T1 sequence (P12822 34-1310): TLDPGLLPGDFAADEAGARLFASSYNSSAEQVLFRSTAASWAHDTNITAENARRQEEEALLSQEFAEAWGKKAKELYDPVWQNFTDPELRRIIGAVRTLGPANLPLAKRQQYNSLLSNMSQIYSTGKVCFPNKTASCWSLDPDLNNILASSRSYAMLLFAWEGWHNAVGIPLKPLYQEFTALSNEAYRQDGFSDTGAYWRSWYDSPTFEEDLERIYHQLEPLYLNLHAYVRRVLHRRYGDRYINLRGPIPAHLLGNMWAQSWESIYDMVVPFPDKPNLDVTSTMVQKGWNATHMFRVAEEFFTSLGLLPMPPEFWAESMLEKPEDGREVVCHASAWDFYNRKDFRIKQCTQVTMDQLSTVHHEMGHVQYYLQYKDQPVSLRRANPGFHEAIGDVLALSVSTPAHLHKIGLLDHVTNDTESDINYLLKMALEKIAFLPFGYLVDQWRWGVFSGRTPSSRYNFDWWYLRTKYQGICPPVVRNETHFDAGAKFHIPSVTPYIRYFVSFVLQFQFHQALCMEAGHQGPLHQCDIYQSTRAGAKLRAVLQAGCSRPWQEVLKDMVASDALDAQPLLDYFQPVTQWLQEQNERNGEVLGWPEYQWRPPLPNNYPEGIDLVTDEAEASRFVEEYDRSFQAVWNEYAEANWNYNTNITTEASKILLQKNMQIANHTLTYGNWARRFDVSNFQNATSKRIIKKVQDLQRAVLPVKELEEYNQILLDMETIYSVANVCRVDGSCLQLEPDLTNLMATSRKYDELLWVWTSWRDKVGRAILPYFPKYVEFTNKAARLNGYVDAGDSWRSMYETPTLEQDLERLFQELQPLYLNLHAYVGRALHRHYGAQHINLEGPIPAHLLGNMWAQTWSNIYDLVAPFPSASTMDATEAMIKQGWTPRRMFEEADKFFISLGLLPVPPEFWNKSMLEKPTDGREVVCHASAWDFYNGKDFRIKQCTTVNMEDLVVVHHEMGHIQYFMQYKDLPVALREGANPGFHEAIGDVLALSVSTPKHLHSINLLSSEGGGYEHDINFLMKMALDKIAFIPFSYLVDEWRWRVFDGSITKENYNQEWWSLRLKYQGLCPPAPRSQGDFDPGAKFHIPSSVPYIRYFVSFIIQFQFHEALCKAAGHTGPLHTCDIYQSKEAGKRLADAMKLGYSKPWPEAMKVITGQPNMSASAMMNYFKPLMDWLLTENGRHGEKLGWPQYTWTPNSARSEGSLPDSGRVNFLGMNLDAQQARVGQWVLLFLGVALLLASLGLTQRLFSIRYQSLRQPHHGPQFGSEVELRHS
Description: ACE inhibition and IC50 assay (FAPGG substrate). The class given is biochemical. As for the experimental part:
(§1) ACE inhibition was examined according to Shalaby et al. and Henda et al., with slight modifications. FAPGG and ACE were dissolved in 50 mM Tris-HCl (pH 7.5) containing 300 mM NaCl. A sample solution (40 μL) was mixed with 100 μL of 0.88 mM FAPGG solution, and the mixture was incubated at 37 °C for 5 min. To start the reaction, 60 μL of ACE solution (0.20 U/mL) was added; absorbance was measured at 340 nm and recorded every 1 min for 30 min using a SpectraMax 190 absorbance microplate reader (Molecular Devices, Sunnyvale, USA). The slope averaged over a linear interval of 10–30 min was taken as a measure of the ACE inhibitory activity. The degree of ACE inhibition was calculated according to the following equation: ACE inhibition rate (%) = [1 − (slope inhibitior/slope control)] × 100(2)
The activity of each sample was tested in triplicate. The IC50 value, the concentration of peptide required to reduce ACE activity by 50%, was determined by regression analysis of ACE inhibition (%) vs. peptide concentration.

For data set [3], the target named is T1, ACE (from rabbit lung). Description: In vitro simulated gastrointestinal digestion (pepsin, then trypsin) followed by ACE inhibitory activity assay. The class given is in vitro ADME. Conditions: for stability for pepsin and trypsin digestion: in vitro digestion, read-out ACE inhibitory activity. As for the experimental part: as §1
In vitro digestion was performed according to the method of Cing et.al. The purified peptide sample was mixed with 0.1 M phosphate buffer (pH 2.0) and pepsin (E/S 4%, w/w); the reaction was allowed to proceed for 2 h at 37 °C and stopped by heating at 100 °C for 10 min. Subsequently, the remaining suspension was adjusted to pH 8.0 with 5 M NaOH solution and further digested with trypsin (E/S 4%, w/w); the solution was incubated at 37 °C for 2 h and then heated at 100 °C for 10 min. The protein hydrolysate was centrifuged at 8000 rpm/min for 15 min, and the supernatant was assayed for ACE inhibitory activity.

Data set [4] has as its target T2, Angiotensin I-converting enzyme (from rabbit lung) (rabbit) (UniProt P12822).
T2 sequence: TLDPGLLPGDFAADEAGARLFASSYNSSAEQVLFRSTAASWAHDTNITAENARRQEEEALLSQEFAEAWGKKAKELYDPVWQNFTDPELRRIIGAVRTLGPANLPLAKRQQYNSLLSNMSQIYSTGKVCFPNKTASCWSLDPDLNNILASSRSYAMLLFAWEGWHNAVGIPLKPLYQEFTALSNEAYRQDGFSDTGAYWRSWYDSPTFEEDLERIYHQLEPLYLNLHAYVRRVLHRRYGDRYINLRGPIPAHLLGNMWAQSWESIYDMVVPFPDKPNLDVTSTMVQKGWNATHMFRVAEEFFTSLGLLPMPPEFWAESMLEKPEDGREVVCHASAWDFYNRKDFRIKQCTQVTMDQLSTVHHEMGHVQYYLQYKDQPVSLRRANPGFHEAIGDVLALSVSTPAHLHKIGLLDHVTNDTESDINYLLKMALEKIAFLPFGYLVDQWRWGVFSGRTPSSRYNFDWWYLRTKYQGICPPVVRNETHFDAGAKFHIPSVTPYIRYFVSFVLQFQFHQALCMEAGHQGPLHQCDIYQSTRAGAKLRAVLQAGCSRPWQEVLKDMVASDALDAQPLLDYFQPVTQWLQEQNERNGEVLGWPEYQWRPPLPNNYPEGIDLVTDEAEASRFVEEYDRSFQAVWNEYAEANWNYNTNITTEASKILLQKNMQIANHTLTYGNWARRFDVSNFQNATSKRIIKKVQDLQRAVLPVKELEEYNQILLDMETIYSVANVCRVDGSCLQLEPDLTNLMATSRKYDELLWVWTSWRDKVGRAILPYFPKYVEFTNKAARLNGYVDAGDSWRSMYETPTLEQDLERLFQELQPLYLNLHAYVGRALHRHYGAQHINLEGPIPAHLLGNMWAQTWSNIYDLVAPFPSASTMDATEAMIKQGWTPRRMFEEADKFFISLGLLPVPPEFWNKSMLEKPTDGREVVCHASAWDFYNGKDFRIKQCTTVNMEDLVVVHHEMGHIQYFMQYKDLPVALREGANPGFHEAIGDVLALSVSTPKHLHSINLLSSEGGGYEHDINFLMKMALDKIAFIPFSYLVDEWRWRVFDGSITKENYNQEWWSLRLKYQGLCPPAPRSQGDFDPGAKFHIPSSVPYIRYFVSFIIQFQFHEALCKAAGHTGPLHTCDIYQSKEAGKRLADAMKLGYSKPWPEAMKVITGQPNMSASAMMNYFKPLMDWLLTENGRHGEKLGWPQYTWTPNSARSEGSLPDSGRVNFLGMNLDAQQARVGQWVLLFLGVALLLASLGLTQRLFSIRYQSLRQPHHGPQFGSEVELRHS

Data set [5] addresses T2, Angiotensin I-converting enzyme (from rabbit lung) (rabbit). The source holds these as a separate data set.
The mark [6] stands for this setting: peptides from Porphyra yezoensis.
[7] abbreviates: peptides purified from Ulva rigida protein hydrolysate.
Setting [8] is: peptides identified in fraction C2-8, FAPGG 0.88 mM, ACE 0.20 U/mL, 50 mM Tris-HCl pH 7.5, 300 mM NaCl, 37 °C, absorbance 340 nm, tested in triplicate.
Setting [9] is: purified ACE inhibitors, same values as in μM given in mg/mL.
Where [10] appears, read: pH 2, synthetic peptide at 0.2 mg/mL, after pepsin hydrolysis for 2 h (0.1 M phosphate buffer pH 2.0, E/S 4% w/w, 37 °C).
The mark [11] stands for this setting: synthetic peptide at 0.2 mg/mL, Control (no digestion).
Setting [12] is: synthetic peptide at 0.2 mg/mL, pepsin hydrolysis for 2 h (pH 2.0, 37 °C) followed by trypsin hydrolysis for 2 h (pH 8.0, 37 °C), E/S 4% w/w each.
The mark [13] stands for this setting: peptides from Undaria pinnatifida.

Results on 15 molecules are retold here after article PMC6471128, “Preparation and Identification of ACE Inhibitory Peptides from the Marine Macroalga Ulva intestinalis” (Marine Drugs, 2019).

Where two headings read alike, the source gives them in different places. Ends that are not written are not given here.

Turning to Ile-Tyr, in data set [1] (setting [6]), the IC50 was 2.69 µM.
Gln-Val-Glu-Tyr: in data set [1] (peptide from hydrolyzed Gracilariopsis lemaneiformis), the IC50 was 474 µM.
For the molecule Leu-Arg-Tyr, the IC50 in data set [1] (setting [6]) was 5.06 µM.
In the case of Ala-Lys-Tyr-Ser-Tyr, the IC50 in data set [1] (setting [6]) was 1.52 µM.
For Ile-Pro, the half-maximal inhibitory concentration (IC50) in data set [1] (setting [7]) is 87.6 µM.
For “FGMPLDR [FGMPLDR, Phe-Gly-Met-Pro-Leu-Asp-Arg]”, the half-maximal inhibitory concentration (IC50) in data set [2] (setting [8]) and in data set [2] (setting [9]) was 219 µM throughout. Besides, the “stability for pepsin and trypsin digestion” value in data set [3] is reported as “good stability”. Besides, the figures for the inhibition at 200 µg/mL in data set [3] (setting [10]), in data set [3] (setting [11]) and in data set [3] (setting [12]) were 52.98 ± 0.19%, 50.07 ± 0.07% and 51.32 ± 0.02%, respectively.
Turning to Met-Lys-Tyr, the IC50 in data set [1] (setting [6]) was 7.26 µM.
Take “MELVLR [MELVLR, Met-Glu-Leu-Val-Leu-Arg]”: the half-maximal inhibitory concentration (IC50) in data set [2] (setting [8]) is 237 µM; in data set [2] (setting [9]) it was 236 µM. In data set [3], the “stability for pepsin and trypsin digestion” value was “good stability”. In addition, the inhibition at 200 µg/mL was 56.84 ± 0.04% in data set [3] (setting [10]), 59.92 ± 0.04% in data set [3] (setting [11]) and 58.63 ± 0.13% in data set [3] (setting [12]).
Tyr-Asn-Lys-Leu: in data set [1] (setting [13]), the IC50 was 21 µM.
With Ala-Phe-Leu, in data set [1] (setting [7]), the IC50 was 65.8 µM.
Consider Tyr-Lys-Tyr-Tyr, for which the IC50 in data set [1] (setting [13]) is 64.2 µM.
Take Ala-Ile-Tyr-Lys: in data set [1] (setting [13]), the IC50 is 213 µM.
On to Lys-Phe-Tyr-Gly, for which, in data set [1] (setting [13]), the IC50 was 90.5 µM.
Consider MELVLR [Met-Glu-Leu-Val-Leu-Arg], for which the IC50 of ACE inhibition (hydrolysis of FAPGG by ACE, absorbance at 340 nm, 37 °C, 50 mM Tris-HCl pH 7.5, 300 mM NaCl) in data set [4] turned out to be 237 μM. In data set [5], this molecule returned an ACE Inhibitory Activity (%) of the synthetic peptide at 0.2 mg/mL, after pepsin hydrolysis for 2 h of 56.8%; an ACE Inhibitory Activity (%) of the synthetic peptide at 0.2 mg/mL, after pepsin hydrolysis for 2 h followed by trypsin hydrolysis for 2 h of 58.6%; an ACE Inhibitory Activity (%) of the synthetic peptide at 0.2 mg/mL, control (not digested) of 59.9%.
Turning to FGMPLDR [Phe-Gly-Met-Pro-Leu-Asp-Arg], in data set [4], the IC50 of ACE inhibition (hydrolysis of FAPGG by ACE, absorbance at 340 nm, 37 °C, 50 mM Tris-HCl pH 7.5, 300 mM NaCl) was 219 μM. Further, in data set [5], the ACE Inhibitory Activity (%) of the synthetic peptide at 0.2 mg/mL, after pepsin hydrolysis for 2 h came out at 53%; the ACE Inhibitory Activity (%) of the synthetic peptide at 0.2 mg/mL, after pepsin hydrolysis for 2 h followed by trypsin hydrolysis for 2 h came to 51.3%; the ACE Inhibitory Activity (%) of the synthetic peptide at 0.2 mg/mL, control (not digested) came to 50.1%.
